Assay results from the supplement of paper PMC11451515.

Assays:
Conditions in all cases: 48 h
[1] = test system: NOMO1; experiment: cell viability relative to DMSO control; higher = less cytotoxic
How it was run: (§1)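 Viability, reported as a per-plate percentage of DMSO wells with cell-free wells as background, came from CellTiter-Glo One luminescence. Reading took place after 48 h at 37°C. Before that, NOMO1 or SEM (500 cells/well) or P12-Ichikawa (1000 cells/well) leukemia cells, adapted for at least four passages in each medium, were seeded in 1536-well plates (5 μl) and pin-dosed with library compounds in DMSO, 47 μM to 0.79 nM over 11 threefold points.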

[2] = test system: P12-Ichikawa; experiment: as above
How it was run: as §1

[3] = test system: SEM cells; experiment: as above
How it was run: as §1

[4] = test system: NOMO1; experiment: AUC of viability dose-response curve (% viability x log10 dose units); higher = less sensitive
How it was run: (§2)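 Leukemia cells adapted to each medium were seeded in 1536-well plates (500 or 1000 cells/well). They were dosed with library compounds in DMSO at 11 threefold doses, 47 μM to 0.79 nM, for 48 h at 37°C. CellTiter-Glo One luminescence was normalised per plate to DMSO and cell-free wells. Area under the curve was integrated by trapezoidal rule over log10 doses on a four-parameter log-logistic fit; curves exceeding full viability were scaled and curves failing quality control removed.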

[5] = test system: P12-Ichikawa; experiment: as above
How it was run: as §2

[6] = test system: SEM cells; experiment: as above
How it was run: as §2

COc1cc2ncnc(Nc3ccc(F)c(Cl)c3)c2cc1OCCCN1CCOCC1
cell viability [%]
Conditions	[1]	[2]	[3]
HPLM + 10% dialyzed FBS, 0.000781 µM	127	115	118
HPLM + 10% dialyzed FBS, 0.00234 µM	115	114	113
HPLM + 10% dialyzed FBS, 0.00702 µM	112	120	123
HPLM + 10% dialyzed FBS, 0.0211 µM	95.3	115	103
HPLM + 10% dialyzed FBS, 0.0632 µM	109	112	123
HPLM + 10% dialyzed FBS, 0.19 µM	117	113	112
HPLM + 10% dialyzed FBS, 0.569 µM	108	117	107
HPLM + 10% dialyzed FBS, 1.71 µM	96.8	111	102
HPLM + 10% dialyzed FBS, 5.12 µM	93.7	100	86.8
HPLM + 10% dialyzed FBS, 15.4 µM	64	95.4	48.5
HPLM + 10% dialyzed FBS, 46.1 µM	29.2	4.05	10.9
RPMI 5 mM glucose + 10% FBS, 0.000781 µM	111	122	–
RPMI 5 mM glucose + 10% FBS, 0.00234 µM	114	113	–
RPMI 5 mM glucose + 10% FBS, 0.00702 µM	109	109	–
RPMI 5 mM glucose + 10% FBS, 0.0211 µM	106	109	–
RPMI 5 mM glucose + 10% FBS, 0.0632 µM	102	112	–
RPMI 5 mM glucose + 10% FBS, 0.19 µM	116	109	–
RPMI 5 mM glucose + 10% FBS, 0.569 µM	104	114	–
RPMI 5 mM glucose + 10% FBS, 1.71 µM	100	106	–
RPMI 5 mM glucose + 10% FBS, 5.12 µM	101	104	–
RPMI 5 mM glucose + 10% FBS, 15.4 µM	87.7	111	–
RPMI 5 mM glucose + 10% FBS, 46.1 µM	86.2	93.7	–
RPMI 5 mM glucose + 10% dialyzed FBS, 0.000781 µM	121	111	105
RPMI 5 mM glucose + 10% dialyzed FBS, 0.00234 µM	112	116	119
RPMI 5 mM glucose + 10% dialyzed FBS, 0.00702 µM	122	116	125
RPMI 5 mM glucose + 10% dialyzed FBS, 0.0211 µM	112	115	102
RPMI 5 mM glucose + 10% dialyzed FBS, 0.0632 µM	115	113	125
RPMI 5 mM glucose + 10% dialyzed FBS, 0.19 µM	113	109	118
RPMI 5 mM glucose + 10% dialyzed FBS, 0.569 µM	114	111	123
RPMI 5 mM glucose + 10% dialyzed FBS, 1.71 µM	109	112	108
RPMI 5 mM glucose + 10% dialyzed FBS, 5.12 µM	93.4	106	78.1
RPMI 5 mM glucose + 10% dialyzed FBS, 15.4 µM	97.5	101	82
RPMI 5 mM glucose + 10% dialyzed FBS, 46.1 µM	75.1	86.6	31.9

AUC of viability dose-response curve
Conditions	[4]	[5]	[6]
HPLM + 10% dialyzed FBS	425	446	408
RPMI 5 mM glucose + 10% FBS	452	446	419
RPMI 5 mM glucose + 10% dialyzed FBS	443	463	425

CC1=C(C)C2=C(S1)[N]3C(=NN=C3[C@H](CC(=O)OC(C)(C)C)/N=C2/C4=CC=C(Cl)C=C4)C
cell viability [%]
Conditions	[1]	[2]	[3]
HPLM + 10% dialyzed FBS, 0.000781 µM	104	98.4	98.5
HPLM + 10% dialyzed FBS, 0.00234 µM	97.6	98.2	115
HPLM + 10% dialyzed FBS, 0.00702 µM	92	97.1	107
HPLM + 10% dialyzed FBS, 0.0211 µM	102	100	105
HPLM + 10% dialyzed FBS, 0.0632 µM	96.1	92.7	104
HPLM + 10% dialyzed FBS, 0.19 µM	70.7	79.5	43.2
HPLM + 10% dialyzed FBS, 0.569 µM	28.9	39.4	11.3
HPLM + 10% dialyzed FBS, 1.71 µM	52.4	57.7	17.7
HPLM + 10% dialyzed FBS, 5.12 µM	15.7	35.1	6.74
HPLM + 10% dialyzed FBS, 15.4 µM	10.5	15.4	4.33
HPLM + 10% dialyzed FBS, 46.1 µM	10.1	6.39	1.71
RPMI 5 mM glucose + 10% FBS, 0.000781 µM	88.2	97.6	100
RPMI 5 mM glucose + 10% FBS, 0.00234 µM	99.2	90.6	108
RPMI 5 mM glucose + 10% FBS, 0.00702 µM	96.4	91.5	106
RPMI 5 mM glucose + 10% FBS, 0.0211 µM	88.4	97.6	102
RPMI 5 mM glucose + 10% FBS, 0.0632 µM	86.2	85.8	103
RPMI 5 mM glucose + 10% FBS, 0.19 µM	81.8	81.1	67.7
RPMI 5 mM glucose + 10% FBS, 0.569 µM	27.3	43	13.7
RPMI 5 mM glucose + 10% FBS, 1.71 µM	50.5	52.4	18.7
RPMI 5 mM glucose + 10% FBS, 5.12 µM	12.1	37.1	7.27
RPMI 5 mM glucose + 10% FBS, 15.4 µM	10.6	22.4	4.94
RPMI 5 mM glucose + 10% FBS, 46.1 µM	11.1	13.6	1.39
RPMI 5 mM glucose + 10% dialyzed FBS, 0.000781 µM	101	92.2	108
RPMI 5 mM glucose + 10% dialyzed FBS, 0.00234 µM	97.5	92.2	103
RPMI 5 mM glucose + 10% dialyzed FBS, 0.00702 µM	92.5	87.8	102
RPMI 5 mM glucose + 10% dialyzed FBS, 0.0211 µM	87.7	95	78.7
RPMI 5 mM glucose + 10% dialyzed FBS, 0.0632 µM	96.8	90.6	94.7
RPMI 5 mM glucose + 10% dialyzed FBS, 0.19 µM	81.9	78.9	53.9
RPMI 5 mM glucose + 10% dialyzed FBS, 0.569 µM	29.5	39.9	17.5
RPMI 5 mM glucose + 10% dialyzed FBS, 1.71 µM	55.3	50.4	15.8
RPMI 5 mM glucose + 10% dialyzed FBS, 5.12 µM	11.7	40.1	5.05
RPMI 5 mM glucose + 10% dialyzed FBS, 15.4 µM	10.6	17.3	3.64
RPMI 5 mM glucose + 10% dialyzed FBS, 46.1 µM	10.5	7.9	1.14

AUC of viability dose-response curve
Conditions	[4]	[5]	[6]
HPLM + 10% dialyzed FBS	292	311	249
RPMI 5 mM glucose + 10% FBS	286	313	264
RPMI 5 mM glucose + 10% dialyzed FBS	296	305	251
